These results are taken from ChEMBL document CHEMBL1123114, “Structure-activity relationships of arylimidazopyridine cardiotonics: discovery and inotropic activity of 2-[2-methoxy-4-(methylsulfinyl)phenyl]-1H-imidazo[4,5-c]pyridine” (1985).

In general, ED50 refers to the midpoint of the dose-response relation. A lower ED50 goes with an effect at a small dose.

Test [1] is filed under the species Felis catus. Kind of test: Compound tested for contractility in isolated cat papillary muscle at 10 e-4 M. The class given is functional.
Test [2] is filed under the species Felis catus. The test is described as follows: Response ratio = (percent increase to drug)/(percent increase to 10 E-4 M isoproterenol). The class given is functional.
For test [3], the species on record is Felis catus. Kind of test: Compound tested for contractility in isolated cat papillary muscle at 10 e-5 M. The class given is functional.
The species named for test [4] is Felis catus. Kind of test: Response ratio = (percent increase to drug)/(percent increase to 10 E-5 M isoproterenol). The class given is functional.
Test [5] relates to Canis familiaris. The test is described as follows: Percent change in heart rate in anesthetized dog. The class given is functional, Canis lupus familiaris.
Test [6] has as its system Canis familiaris. The test is described as follows: Percent change in mean arterial blood pressure in anesthetized dog. The class given is functional, Canis lupus familiaris.
The test system of test [7] is Canis familiaris. Kind of test: Compound tested for contractility in anesthetized dog when administered intravenously. The class given is functional. The settings on record: Canis lupus familiaris, iv.

Take `COc1cc(OCc2ccccc2)ccc1-c1nc2cc[nH]cc-2n1`: the Control in test [1] is recorded as 105%; in test [3], 112%. Also, the results for the Response ratio in test [2] and in test [4] were 0.07 and 0.17, respectively.
The corresponding values for `Fc1ccc(-c2nc3cc[nH]cc-3n2)cc1` are 163%, 105%, 0.87 and 0.06.
As to `COc1cc(I)ccc1-c1nc2cc[nH]cc-2n1`, the Control in test [1] is recorded as 159%; in test [3], 139%. Besides, the Response ratio in test [2] worked out at 0.82; in test [4], 0.54.
`CCCSc1ccc(-c2nc3cc[nH]cc-3n2)c(OC)c1`: the Control turned out to be 139% in test [1] and 125% in test [3]. For the same compound, the Response ratio in test [2] stood at 0.54; in test [4] it was 0.35.
The matching figures for `COc1cc(F)ccc1-c1nc2cc[nH]cc-2n1`: 142%, 120%, 0.58 and 0.28.
For the compound `CCOc1cc(OC)ccc1-c1nc2cc[nH]cc-2n1`, the Control in test [1] worked out at 130%; in test [3] it was 108%. Moreover, the figures for the Response ratio in test [2] and in test [4] were 0.41 and 0.11, respectively.
For `COCCOc1cc(OC)ccc1-c1nc2cc[nH]cc-2n1`, the Control in test [1] turned out to be 116%; in test [3], 109%. The Response ratio in test [2] was determined as 0.22; in test [4] it was 0.12.
Regarding `COc1ccc(-c2nc3cc[nH]cc-3n2)c(OCC[S+]([O-])c2ccccc2)c1` (configuration not stated), the Control was found to be 96% in test [1] and 107% in test [3]. Also, the figures for the Response ratio in test [2] and in test [4] were -0.05 and 0.1, respectively.
Turning to `Fc1ccccc1-c1nc2cc[nH]cc-2n1`, the Control in test [1] is listed as 145%; in test [3] it was 107%. Also, the Response ratio in test [2] is 0.63; in test [4], 0.1.
Regarding `COc1cc(OC)c(-c2nc3cc[nH]cc-3n2)c(OC)c1`, the values for the Control in test [1] and in test [3] were 137% and 103%, respectively. In addition, the Response ratio was found to be 0.51 in test [2] and 0.04 in test [4].
`CCSc1ccc(-c2nc3cc[nH]cc-3n2)c(OC)c1`: the figures for the Control in test [1] and in test [3] were 196% and 136%, respectively. Besides, the figures for the Response ratio in test [2] and in test [4] were 1.33 and 0.5, respectively.
`COc1cc(SC)ccc1-c1nc2c[nH]cnc-2n1`: the Control worked out at 131% in test [1] and 109% in test [3]. Moreover, the Response ratio is 0.43 in test [2] and 0.12 in test [4].
Regarding `Cc1ccc(-c2nc3cc[nH]cc-3n2)cc1`, the Control in test [1] came out at 196%; in test [3] it was 97%. For the same compound, the Response ratio is listed as 0.96 in test [2] and -0.04 in test [4].
For `COc1cccc(-c2nc3cc[nH]cc-3n2)c1`, the values for the Control in test [1] and in test [3] were 214% and 115%, respectively. Moreover, the Response ratio in test [2] is 1.58; in test [4], 0.21.
Turning to `COc1ccc(-c2nc3ccc[nH]c-3n2)cc1OC`, the Control in test [1] was determined as 116.5%; in test [3], 103%. Moreover, the Response ratio in test [2] came out at 0.22; in test [4], 0.04.
As for `CSc1ccc(-c2nc3ccc[nH]c-3n2)cc1`, the Change in test [5] is 27%; in test [6], -7%. This compound also displayed an ED50 in test [7] of 1.9 mg/kg.
In the case of `Clc1cc(Cl)cc(-c2nc3cc[nH]cc-3n2)c1`, the results for the Control in test [1] and in test [3] were 146% and 115%, respectively. Moreover, the Response ratio in test [2] stood at 0.64; in test [4], 0.21.
Turning to `COc1c(C)cc(-c2nc3cc[nH]cc-3n2)cc1C`, the Control is given as 213% in test [1] and 121% in test [3]. The Response ratio is 1.57 in test [2] and 0.29 in test [4].
The matching figures for `COc1cccc(OC)c1-c1nc2cc[nH]cc-2n1`: 184%, 78%, 1.16 and -0.31.
As to `COc1cc(Br)ccc1-c1nc2cc[nH]cc-2n1`, the Control was 175% in test [1] and 134% in test [3]. Moreover, the Response ratio in test [2] came out at 1.04; in test [4] it was 0.47.
Consider `CCCOc1cc(SC)ccc1-c1nc2cc[nH]cc-2n1`, for which the Change in test [5] is listed as -3%; in test [6], -62%. Also, the 50% effect level in test [7] (ED50) was put at a dose of 1.2 mg/kg.
Turning to `COc1ccc(-c2nc3cc[nH]cc-3n2)c(OCCCSC)c1`, the Control was determined as 129% in test [1] and 118% in test [3]. Also, the results for the Response ratio in test [2] and in test [4] were 0.41 and 0.25, respectively.
The matching figures for `COCCCOc1cc(OC)ccc1-c1nc2cc[nH]cc-2n1`: 147%, 99%, 0.65 and -0.01.
Take `CSc1ccc(-c2nc3cc[nH]cc-3n2)c(SC)c1`: the Control in test [1] is 161%; in test [3], 113%. In addition, the Response ratio in test [2] worked out at 0.84; in test [4] it was 0.18.
As to `COc1cc(-c2nc3cc[nH]cc-3n2)cc(OC)c1OC`, the Control was determined as 151% in test [1] and 109% in test [3]. Besides, the results for the Response ratio in test [2] and in test [4] were 0.71 and 0.12, respectively.
With `COc1ccc(OC)c(-c2nc3cc[nH]cc-3n2)c1`, the Control in test [1] worked out at 169%; in test [3] it was 110%. Further, the Response ratio was determined as 0.96 in test [2] and 0.14 in test [4].
The matching figures for `N#Cc1ccc(-c2nc3ccncc3[nH]2)cc1`: 164%, 112%, 0.89 and 0.16.
As for `COc1ccccc1-c1nc2cc[nH]cc-2n1`, the results for the Control in test [1] and in test [3] were 200% and 120%, respectively. In addition, the Response ratio in test [2] is recorded as 1.38; in test [4], 0.28.
Take `COc1ccc(-c2nc3cc[nH]cc-3n2)c([S+](C)[O-])c1` (configuration not stated): the Control came to 116% in test [1] and 107% in test [3]. Also, the Response ratio is 0.22 in test [2] and 0.1 in test [4].
The corresponding values for `COc1cc(-c2nc3cc[nH]cc-3n2)ccc1[S+](C)[O-]` (configuration not stated) are 154%, 111%, 0.75 and 0.15.
For the compound `COc1ccc(-c2nc3cc[nH]cc-3n2)c(C)c1`, the Control in test [1] worked out at 145%; in test [3] it was 119%. For the same compound, the Response ratio stood at 0.63 in test [2] and 0.26 in test [4].
Take `CS(=O)(=O)c1ccc(-c2nc3ccc[nH]c-3n2)cc1`: the Change in test [5] is reported as 8%; in test [6] it was -2%. In addition, the 50% effect level in test [7] (ED50) was put at a dose of 18 mg/kg.
Regarding `CCCCOc1cc(OC)ccc1-c1nc2cc[nH]cc-2n1`, the Control in test [1] is 140%; in test [3], 100%. For the same compound, the values for the Response ratio in test [2] and in test [4] were 0.55 and 0, respectively.
For `Fc1cccc(-c2nc3cc[nH]cc-3n2)c1`, the Control in test [1] came out at 157%; in test [3], 112%. Also, the Response ratio is 0.79 in test [2] and 0.17 in test [4].
On to `COc1cccc(-c2nc3cc[nH]cc-3n2)c1OC`, for which the values for the Control in test [1] and in test [3] were 90% and 102%, respectively. The Response ratio in test [2] is on record as -0.14; in test [4], 0.03.
Turning to `c1ccc(-c2nc3ccccc3[nH]2)cc1`, the Control is 134% in test [1] and 105% in test [3]. Besides, the Response ratio in test [2] was determined as 0.47; in test [4], 0.07.
In the case of `CCCCCOc1cc(OC)ccc1-c1nc2cc[nH]cc-2n1`, the Control in test [1] came out at 81%; in test [3], 105%. In addition, the results for the Response ratio in test [2] and in test [4] were -0.26 and 0.07, respectively.
On to `CC[S+]([O-])c1ccc(-c2nc3cc[nH]cc-3n2)c(OC)c1` (configuration not stated), for which the results for the Control in test [1] and in test [3] were 170% and 136%, respectively. Besides, the Response ratio in test [2] is given as 1; in test [4], 0.5.
Consider `COc1cc(N(C)C)ccc1-c1nc2cc[nH]cc-2n1`, for which the Control in test [1] is on record as 165%; in test [3], 102%. Besides, the Response ratio in test [2] came out at 0.9; in test [4], 0.03.
The matching figures for `c1ccc(Sc2ccc(-c3nc4cc[nH]cc-4n3)cc2)cc1`: 124%, 122%, 0.33 and 0.31.
In the case of `COc1ccc(-c2nc3cc[nH]cc-3n2)c(SC)c1`, the Control was determined as 204% in test [1] and 114% in test [3]. In addition, the Response ratio in test [2] stood at 1.44; in test [4], 0.19.
For the compound `COc1cc(OC)cc(-c2nc3cc[nH]cc-3n2)c1`, the Control in test [1] stood at 179%; in test [3], 115%. The Response ratio in test [2] was determined as 1.1; in test [4], 0.21.
On to `CCOc1cc(SC)ccc1-c1nc2cc[nH]cc-2n1`, for which the Control in test [1] is recorded as 149%; in test [3], 122%. Further, the Response ratio is 0.68 in test [2] and 0.3 in test [4].
As for `COc1cc(OC)c(-c2nc3cc[nH]cc-3n2)cc1OC`, the Control in test [1] came out at 129%; in test [3], 108%. In addition, the figures for the Response ratio in test [2] and in test [4] were 0.4 and 0.12, respectively.
The corresponding values for `COc1ccc(-c2nc3cc[nH]cc-3n2)c(OCCSc2ccccc2)c1` are 109%, 103%, 0.12 and 0.04.
